# PMC8242467 (Cell Reports, 2021)
# Structures can show the parent of a compound that is named as a salt.
# Molecular target: T1, mitochondrial calcium uniporter (MCU) (Homo sapiens, UniProt Q8NE86)
# T1 sequence (Q8NE86 51-351): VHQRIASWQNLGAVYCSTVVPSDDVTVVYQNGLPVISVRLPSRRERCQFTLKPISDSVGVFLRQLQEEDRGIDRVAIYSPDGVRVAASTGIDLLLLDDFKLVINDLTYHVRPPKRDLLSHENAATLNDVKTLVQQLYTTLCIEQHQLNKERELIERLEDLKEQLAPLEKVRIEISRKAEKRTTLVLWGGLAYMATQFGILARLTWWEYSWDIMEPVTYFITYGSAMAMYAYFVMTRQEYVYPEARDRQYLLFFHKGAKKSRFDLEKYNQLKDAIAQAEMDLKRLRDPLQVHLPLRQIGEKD
# Assay: mitochondrial Ca2+ uptake in permeabilized HeLa cells
# Assay type: cell-based
structure (smiles),measurement,value
"CCC(C)(C)c1ccc(CC(C)CN2C[C@@H](C)O[C@@H](C)C2)cc1 (stereo partly drawn) [amorolfine, (2R,6S)-2,6-dimethyl-4-[2-methyl-3-[4-(2-methylbutan-2-yl)phenyl]propyl]morpholine;hydrochloride]",EC50,86.9 µM
